Test results as given in PMC4076210, “Discovery of Novel AKT Inhibitors with Enhanced Anti-Tumor Effects in Combination with the MEK Inhibitor” (PLoS ONE, 2014).
Like-named read-outs stand apart in the source and are kept apart here.

What was measured:
Format in all cases: biochemical
MAPK2(h) = molecular target: T1, MAPK2(h) (Homo sapiens, UniProt P28482); test: Kinase panel
T1 construct: purchased Millipore KinaseProfiler

PASK(h) = molecular target: T2, PASK(h) (Homo sapiens, UniProt Q96RG2); test: Kinase panel
T2 construct: purchased Millipore KinaseProfiler

SAPK3(h) = molecular target: T3, SAPK3(h) (Homo sapiens, UniProt P53778); test: Kinase panel
T3 construct: purchased Millipore KinaseProfiler
T3 sequence (P53778 1-367): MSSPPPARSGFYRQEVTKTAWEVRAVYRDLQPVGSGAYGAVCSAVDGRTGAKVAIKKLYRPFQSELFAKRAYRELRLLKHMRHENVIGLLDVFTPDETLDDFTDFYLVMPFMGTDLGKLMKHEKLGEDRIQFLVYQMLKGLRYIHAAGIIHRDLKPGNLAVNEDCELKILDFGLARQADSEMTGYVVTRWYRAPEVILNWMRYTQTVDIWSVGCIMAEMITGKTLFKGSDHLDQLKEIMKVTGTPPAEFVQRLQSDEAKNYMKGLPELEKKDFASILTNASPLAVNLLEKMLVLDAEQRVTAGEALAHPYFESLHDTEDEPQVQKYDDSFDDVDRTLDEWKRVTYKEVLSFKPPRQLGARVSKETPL

CK2α2(h) = molecular target: T4, CK2α2(h) (Homo sapiens, UniProt P19784); test: Kinase panel
T4 construct: purchased Millipore KinaseProfiler

PKD2(h) = molecular target: T5, PKD2(h) (Homo sapiens, UniProt Q9BZL6); test: Kinase panel
T5 construct: purchased Millipore KinaseProfiler
T5 sequence (Q9BZL6 1-878): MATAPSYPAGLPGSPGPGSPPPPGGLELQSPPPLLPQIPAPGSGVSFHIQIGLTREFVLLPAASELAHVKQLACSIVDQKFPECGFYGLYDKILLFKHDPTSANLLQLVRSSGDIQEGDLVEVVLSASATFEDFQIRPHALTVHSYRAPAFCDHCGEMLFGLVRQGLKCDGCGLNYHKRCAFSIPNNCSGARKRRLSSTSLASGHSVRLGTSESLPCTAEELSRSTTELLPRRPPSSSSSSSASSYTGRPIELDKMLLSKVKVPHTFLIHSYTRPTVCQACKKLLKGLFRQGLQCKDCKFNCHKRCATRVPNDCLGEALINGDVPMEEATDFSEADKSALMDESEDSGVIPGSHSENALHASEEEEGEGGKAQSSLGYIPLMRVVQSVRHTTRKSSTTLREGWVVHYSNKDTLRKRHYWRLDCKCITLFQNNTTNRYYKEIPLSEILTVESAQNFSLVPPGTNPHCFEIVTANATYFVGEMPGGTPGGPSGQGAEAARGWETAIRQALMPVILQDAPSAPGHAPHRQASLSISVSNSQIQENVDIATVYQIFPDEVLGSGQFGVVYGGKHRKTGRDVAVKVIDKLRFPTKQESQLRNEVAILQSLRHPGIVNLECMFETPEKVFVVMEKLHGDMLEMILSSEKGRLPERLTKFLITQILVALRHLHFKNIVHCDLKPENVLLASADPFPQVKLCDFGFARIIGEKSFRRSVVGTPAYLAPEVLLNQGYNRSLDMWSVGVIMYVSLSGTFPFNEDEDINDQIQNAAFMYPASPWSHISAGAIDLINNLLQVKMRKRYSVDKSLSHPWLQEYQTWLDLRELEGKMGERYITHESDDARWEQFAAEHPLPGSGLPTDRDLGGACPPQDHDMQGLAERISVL

DRAK1(h) = molecular target: T6, DRAK1(h) (Homo sapiens, UniProt Q9UEE5); test: Kinase panel
T6 construct: purchased Millipore KinaseProfiler
T6 sequence (Q9UEE5 1-414): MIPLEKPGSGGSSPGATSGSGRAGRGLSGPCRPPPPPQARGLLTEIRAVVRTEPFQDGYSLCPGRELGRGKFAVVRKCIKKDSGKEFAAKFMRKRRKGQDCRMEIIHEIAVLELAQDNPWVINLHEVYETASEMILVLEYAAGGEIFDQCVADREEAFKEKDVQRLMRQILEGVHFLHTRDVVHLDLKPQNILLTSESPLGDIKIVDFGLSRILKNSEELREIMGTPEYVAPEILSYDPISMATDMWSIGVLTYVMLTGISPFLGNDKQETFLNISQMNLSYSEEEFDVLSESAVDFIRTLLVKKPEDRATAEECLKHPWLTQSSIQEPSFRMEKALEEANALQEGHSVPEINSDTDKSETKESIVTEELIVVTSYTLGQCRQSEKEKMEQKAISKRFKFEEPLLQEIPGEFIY

Src(T341M)(h) = molecular target: T7, Src(T341M)(h) (Homo sapiens, UniProt P12931, T341M); test: Kinase panel
T7 construct: purchased Millipore KinaseProfiler

PKG1α = PKG1α (Homo sapiens, UniProt Q13976); test: Kinase IC50 assay
SRPK2(h) = molecular target: T8, SRPK2(h) (Homo sapiens, UniProt P78362); test: Kinase panel
T8 construct: purchased Millipore KinaseProfiler

Plk3(h) = molecular target: T9, Plk3(h) (Homo sapiens, UniProt Q9H4B4); test: Kinase panel
T9 construct: purchased Millipore KinaseProfiler
T9 sequence (Q9H4B4 whole entry): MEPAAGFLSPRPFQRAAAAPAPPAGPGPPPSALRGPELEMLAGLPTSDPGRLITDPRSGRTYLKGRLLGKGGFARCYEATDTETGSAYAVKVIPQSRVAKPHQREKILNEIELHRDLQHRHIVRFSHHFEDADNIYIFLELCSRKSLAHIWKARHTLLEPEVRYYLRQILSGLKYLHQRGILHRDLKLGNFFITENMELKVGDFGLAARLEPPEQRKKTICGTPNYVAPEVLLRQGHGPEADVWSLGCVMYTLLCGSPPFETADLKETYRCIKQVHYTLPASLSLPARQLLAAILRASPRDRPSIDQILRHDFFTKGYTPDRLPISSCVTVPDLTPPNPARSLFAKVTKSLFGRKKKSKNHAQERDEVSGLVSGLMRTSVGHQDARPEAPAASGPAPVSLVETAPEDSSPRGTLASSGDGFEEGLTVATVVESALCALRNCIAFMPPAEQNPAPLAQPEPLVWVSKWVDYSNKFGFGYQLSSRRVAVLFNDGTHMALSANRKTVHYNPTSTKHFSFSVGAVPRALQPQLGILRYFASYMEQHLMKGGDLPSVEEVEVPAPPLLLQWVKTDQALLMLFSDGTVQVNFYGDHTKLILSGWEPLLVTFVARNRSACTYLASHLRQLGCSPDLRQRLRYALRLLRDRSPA

T1 sequence (P28482 whole entry): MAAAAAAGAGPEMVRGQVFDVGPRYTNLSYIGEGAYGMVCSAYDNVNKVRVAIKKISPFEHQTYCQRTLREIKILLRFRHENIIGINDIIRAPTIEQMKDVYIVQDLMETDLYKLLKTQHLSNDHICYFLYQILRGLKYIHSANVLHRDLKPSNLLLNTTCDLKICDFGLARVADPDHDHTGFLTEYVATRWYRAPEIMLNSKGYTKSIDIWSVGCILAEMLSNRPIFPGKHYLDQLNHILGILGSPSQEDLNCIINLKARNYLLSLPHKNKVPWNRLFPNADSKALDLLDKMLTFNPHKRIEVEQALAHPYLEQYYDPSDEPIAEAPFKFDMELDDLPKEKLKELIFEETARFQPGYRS
T2 sequence (Q96RG2 whole entry): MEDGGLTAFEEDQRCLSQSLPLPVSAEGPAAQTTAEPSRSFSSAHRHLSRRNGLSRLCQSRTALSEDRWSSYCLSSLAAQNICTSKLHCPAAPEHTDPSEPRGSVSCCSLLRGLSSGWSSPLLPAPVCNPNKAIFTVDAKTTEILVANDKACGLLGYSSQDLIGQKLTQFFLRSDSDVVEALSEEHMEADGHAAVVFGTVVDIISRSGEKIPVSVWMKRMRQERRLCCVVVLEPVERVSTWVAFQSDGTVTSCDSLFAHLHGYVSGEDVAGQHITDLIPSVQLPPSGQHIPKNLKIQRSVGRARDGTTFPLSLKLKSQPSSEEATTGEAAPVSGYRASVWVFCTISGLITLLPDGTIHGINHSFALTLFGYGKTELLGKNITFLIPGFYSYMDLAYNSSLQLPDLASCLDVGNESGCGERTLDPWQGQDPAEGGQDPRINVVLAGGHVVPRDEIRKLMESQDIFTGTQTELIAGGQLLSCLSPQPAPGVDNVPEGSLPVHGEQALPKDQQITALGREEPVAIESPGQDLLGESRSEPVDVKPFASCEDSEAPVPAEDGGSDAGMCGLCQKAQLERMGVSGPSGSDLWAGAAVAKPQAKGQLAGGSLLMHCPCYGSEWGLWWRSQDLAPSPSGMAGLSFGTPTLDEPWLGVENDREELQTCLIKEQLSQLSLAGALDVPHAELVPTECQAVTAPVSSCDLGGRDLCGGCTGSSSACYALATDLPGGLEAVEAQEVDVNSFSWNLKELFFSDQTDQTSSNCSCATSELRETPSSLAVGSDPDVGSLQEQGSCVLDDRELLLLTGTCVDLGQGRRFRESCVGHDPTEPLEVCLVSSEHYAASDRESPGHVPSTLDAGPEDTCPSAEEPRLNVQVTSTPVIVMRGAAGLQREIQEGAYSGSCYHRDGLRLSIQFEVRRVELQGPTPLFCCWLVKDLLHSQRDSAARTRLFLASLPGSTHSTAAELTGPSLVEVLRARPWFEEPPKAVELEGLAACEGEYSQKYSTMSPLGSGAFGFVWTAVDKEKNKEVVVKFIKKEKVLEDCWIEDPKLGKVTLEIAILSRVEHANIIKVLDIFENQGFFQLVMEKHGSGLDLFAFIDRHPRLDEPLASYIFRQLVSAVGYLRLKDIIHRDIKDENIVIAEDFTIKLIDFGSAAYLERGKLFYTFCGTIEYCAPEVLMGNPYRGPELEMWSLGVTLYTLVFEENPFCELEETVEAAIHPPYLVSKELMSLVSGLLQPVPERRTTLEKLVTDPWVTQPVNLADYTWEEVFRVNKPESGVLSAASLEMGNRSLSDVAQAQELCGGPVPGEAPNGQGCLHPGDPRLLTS
T8 sequence (P78362 whole entry): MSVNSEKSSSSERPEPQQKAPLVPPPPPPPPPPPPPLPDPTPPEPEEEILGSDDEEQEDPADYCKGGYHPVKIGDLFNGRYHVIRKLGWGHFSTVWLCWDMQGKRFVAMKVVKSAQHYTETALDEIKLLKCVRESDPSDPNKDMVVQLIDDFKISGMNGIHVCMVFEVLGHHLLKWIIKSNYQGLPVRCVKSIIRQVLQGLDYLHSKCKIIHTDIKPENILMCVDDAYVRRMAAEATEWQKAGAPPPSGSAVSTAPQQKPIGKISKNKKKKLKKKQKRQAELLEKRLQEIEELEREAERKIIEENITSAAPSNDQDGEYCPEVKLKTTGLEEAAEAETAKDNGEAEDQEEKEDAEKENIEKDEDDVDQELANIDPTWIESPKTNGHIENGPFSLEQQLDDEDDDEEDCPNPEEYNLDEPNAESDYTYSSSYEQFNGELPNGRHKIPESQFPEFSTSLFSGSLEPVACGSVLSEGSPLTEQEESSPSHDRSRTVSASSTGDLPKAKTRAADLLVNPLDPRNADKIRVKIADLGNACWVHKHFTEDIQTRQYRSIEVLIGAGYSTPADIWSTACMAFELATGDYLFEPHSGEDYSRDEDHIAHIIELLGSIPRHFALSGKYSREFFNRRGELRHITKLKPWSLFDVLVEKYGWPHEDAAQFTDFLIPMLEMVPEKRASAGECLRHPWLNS
T4 sequence (P19784 whole entry): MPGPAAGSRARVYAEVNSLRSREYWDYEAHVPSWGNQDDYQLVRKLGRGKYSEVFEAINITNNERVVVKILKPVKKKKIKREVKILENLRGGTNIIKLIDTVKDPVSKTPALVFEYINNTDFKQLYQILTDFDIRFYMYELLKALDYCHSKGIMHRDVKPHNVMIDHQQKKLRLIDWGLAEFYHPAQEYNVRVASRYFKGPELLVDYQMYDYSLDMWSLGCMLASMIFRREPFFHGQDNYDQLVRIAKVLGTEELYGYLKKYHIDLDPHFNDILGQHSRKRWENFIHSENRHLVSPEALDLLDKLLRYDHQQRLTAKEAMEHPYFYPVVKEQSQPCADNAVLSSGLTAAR
T7 sequence (P12931 whole entry T341M): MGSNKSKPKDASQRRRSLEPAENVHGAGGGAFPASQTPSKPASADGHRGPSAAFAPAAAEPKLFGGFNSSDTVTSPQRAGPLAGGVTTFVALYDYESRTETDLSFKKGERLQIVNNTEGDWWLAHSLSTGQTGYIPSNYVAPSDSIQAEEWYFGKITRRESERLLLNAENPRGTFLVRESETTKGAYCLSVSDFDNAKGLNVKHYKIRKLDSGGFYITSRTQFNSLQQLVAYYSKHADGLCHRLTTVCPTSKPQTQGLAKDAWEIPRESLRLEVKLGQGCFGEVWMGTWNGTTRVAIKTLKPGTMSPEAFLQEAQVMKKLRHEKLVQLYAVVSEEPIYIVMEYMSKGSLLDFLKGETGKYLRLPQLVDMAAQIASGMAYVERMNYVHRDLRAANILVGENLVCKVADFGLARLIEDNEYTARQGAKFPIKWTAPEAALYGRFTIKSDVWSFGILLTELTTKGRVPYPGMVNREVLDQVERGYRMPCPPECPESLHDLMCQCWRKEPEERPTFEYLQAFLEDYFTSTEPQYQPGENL
PKG1α, sequence (Q13976 whole entry): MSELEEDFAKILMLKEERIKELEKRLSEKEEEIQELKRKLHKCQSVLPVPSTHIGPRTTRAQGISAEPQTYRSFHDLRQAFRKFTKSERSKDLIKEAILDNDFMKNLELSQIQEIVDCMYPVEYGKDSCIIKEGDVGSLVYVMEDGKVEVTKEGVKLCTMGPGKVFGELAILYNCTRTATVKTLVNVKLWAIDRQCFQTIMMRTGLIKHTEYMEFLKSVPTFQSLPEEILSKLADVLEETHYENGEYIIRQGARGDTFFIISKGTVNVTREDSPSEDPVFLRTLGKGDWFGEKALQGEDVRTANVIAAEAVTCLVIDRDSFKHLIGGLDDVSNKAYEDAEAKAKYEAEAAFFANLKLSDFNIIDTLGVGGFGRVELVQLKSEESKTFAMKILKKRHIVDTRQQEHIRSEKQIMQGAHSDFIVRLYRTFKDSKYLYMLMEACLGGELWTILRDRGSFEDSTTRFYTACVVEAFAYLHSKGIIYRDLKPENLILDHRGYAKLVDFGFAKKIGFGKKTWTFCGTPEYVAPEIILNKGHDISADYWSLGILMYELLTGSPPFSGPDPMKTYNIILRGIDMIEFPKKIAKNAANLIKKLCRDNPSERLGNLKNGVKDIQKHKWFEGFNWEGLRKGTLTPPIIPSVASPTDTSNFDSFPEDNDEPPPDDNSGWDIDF

## Cn1ncc(Cl)c1-c1cc(C(=O)N[C@H](CN)Cc2cccc(F)c2)sc1Cl [GSK2110183]
MAPK2(h)
  inhibition at 0.5 µM: -2%
  inhibition at 10 µM: 17%
PASK(h)
  inhibition at 0.5 µM: 4%
  inhibition at 10 µM: 45%
SAPK3(h)
  inhibition at 0.5 µM: -6%
  inhibition at 10 µM: 20%
CK2α2(h)
  inhibition at 0.5 µM: 2%
  inhibition at 10 µM: 4%
PKD2(h)
  inhibition at 0.5 µM: 11%
  inhibition at 10 µM: 56%
DRAK1(h)
  inhibition at 0.5 µM: 10%
  inhibition at 10 µM: 40%
Src(T341M)(h)
  inhibition at 0.5 µM: 24%
  inhibition at 10 µM: 83%
PKG1α
  IC50: 0.9 nM
SRPK2(h)
  inhibition at 0.5 µM: 26%
  inhibition at 10 µM: 37%
Plk3(h)
  inhibition at 0.5 µM: -3%
  inhibition at 10 µM: 16%

## Cn1ncc(Cl)c1-c1cc(C(=O)N[C@H](CN)Cc2ccc(F)c(F)c2)oc1Cl [GSK2141795]
MAPK2(h); 0.5 µM, read-out: % Inhibition
  inhibition at 0.5 µM: 11%
MAPK2(h); 10 µM, read-out: % Inhibition
  inhibition at 10 µM: 49%
PASK(h); 0.5 µM, read-out: % Inhibition
  inhibition at 0.5 µM: 11%
PASK(h); 10 µM, read-out: % Inhibition
  inhibition at 10 µM: 49%
SAPK3(h); 0.5 µM, read-out: % Inhibition
  inhibition at 0.5 µM: -14%
SAPK3(h); 10 µM, read-out: % Inhibition
  inhibition at 10 µM: 14%
CK2α2(h); 0.5 µM, read-out: % Inhibition
  inhibition at 0.5 µM: 1%
CK2α2(h); 10 µM, read-out: % Inhibition
  inhibition at 10 µM: -5%
PKD2(h); 0.5 µM, read-out: % Inhibition
  inhibition at 0.5 µM: 17%
PKD2(h); 10 µM, read-out: % Inhibition
  inhibition at 10 µM: 66%
DRAK1(h); 0.5 µM, read-out: % Inhibition
  inhibition at 0.5 µM: -18%
DRAK1(h); 10 µM, read-out: % Inhibition
  inhibition at 10 µM: 24%
Src(T341M)(h); 0.5 µM, read-out: % Inhibition
  inhibition at 0.5 µM: 34%
Src(T341M)(h); 10 µM, read-out: % Inhibition
  inhibition at 10 µM: 88%
PKG1α
  IC50: < 1 nM
SRPK2(h); 0.5 µM, read-out: % Inhibition
  inhibition at 0.5 µM: 1%
SRPK2(h); 10 µM, read-out: % Inhibition
  inhibition at 10 µM: 27%
Plk3(h); 0.5 µM, read-out: % Inhibition
  inhibition at 0.5 µM: -7%
Plk3(h); 10 µM, read-out: % Inhibition
  inhibition at 10 µM: 59%
